Entries after “also recorded” stand apart in the source; their conditions may differ. Like-named read-outs stand apart in the source and are kept apart here.
Columns and labels:
[1] = test system: HFSCs; test: Transplantation of precultured HFSCs with dermal fibroblasts onto mouse back skins; format: in vivo; conditions: HFSCs precultured in serum-free media primed with either atRA, BMP6 or Rspo
Excerpt: By overcoming the hurdles to lineage progression in vitro, we challenged the in vivo regenerative potential of the described lineage-specified cell populations. YFP-labeled progenitors from each group were combined with allogenic dermal fibroblasts and transplanted onto mouse back skins.

[2] = test system: cultured HFSCs; test: Marker expression in cultured HFSCs (immunofluorescence, immunoblot, qPCR); format: cell-based, mouse
Excerpt: We first explored these two hits against the backdrop of our more physiological (serum-free) conditions, where SOX9 and KLF5 had already partitioned their expression peripherally and internally within colonies, respectively (FIG. 1 Panel C).
Immunoblot, qPCR and additional immunofluorescence analyses strengthened the evidence that PKCi and atRA resolve lineage plasticity (FIG. 1 Panel D, FIG. S2, Panels C to E).

[3] = test system: cultured HFSCs; test: HFSC quiescence / bulge identity in culture (Nfatc1, Cxcl14 reporter); format: cell-based, mouse
Excerpt: In vivo, HFSCs can be divided into two populations: those in a more quiescent state found in the bulge and ones primed for activation, located in the ‘hair germ’ (HG) just below the bulge. As BMP6 is produced by the inner bulge and responsible for maintaining HFSCs in their quiescent state (FIG. 2 Panel A), we continued to utilize a described culture system by assessing how these factors impact HFSC activation and fate commitment.
BMPs triggered cell cycle exit (FIG. 9 Panel A).
(§1) ERKi was also excluded because of its known ability to regulate the initiation of hair growth. Both atRA (10 nM-1 μM) and PKCi (0.1-10 μM) were titrated to determine the optimal concentration to reduce lineage plasticity and promote physiological HFSC behavior. […] In contrast, BMP6-mediated Nfatc1 mRNA upregulation (quiescence marker) was maximal at 10 nM. Therefore, the amount of atRA should be modified in HFSC cultures to support the desired cell fate in combination with these and possibly other growth factors.

[4] = test system: hair follicle; test: Topical treatment of mouse back skin at mid-anagen (HF downgrowth)
[5] = test system: human keratinocytes; test: Human keratinocyte culture under the described conditions, 7 days; format: cell-based; conditions: atRA plus PKCi added to B-27 media
Excerpt: This example relates to FIG. 21. With respect to FIG. 21, to assess the translatability of the described methodology enabling the faithful recapitulation of hair follicle stem cell (HFSC) identity in culture to humans, we introduced the described conditions developed in the mouse to human keratinocytes.

[6] = test system: HFSCs; test: Wound repair with lineage-traced HFSCs, topical treatment; format: in vivo, mice
Excerpt: The recruitment of HFSCs to epidermal repair is a multistep process, involving first the entry of HFSCs into a lineage plasticity state, second the fate switch to an epidermal fate and then later, the rebalancing of stem cell numbers across tissue compartments. Given the need for atRA to drive hair lineage determination, we analyzed whether elevating atRA after injury might diminish the ability of HFSCs to enter a state of lineage plasticity after wounding. To test this, we administered topical atRA immediately after wounding to telogen-phase, lineage marked HFSCs. While entry into the hair cycle proceeded normally after injury, topical atRA led to a stem cell imbalance (FIG. 5 Panel D).
To assess the consequences of promoting lineage plasticity following injury, we placed mice on a vitamin A-deficient diet that depleted the skin of retinol without affecting body mass (FIG. 15 Panel E). In this case, following tissue injury, mobilized HFSCs entered a prolonged stated of dual lineage potential well into the later stages of repair (FIG. 5 Panel D). […] By day 30, vitamin A deficiency also elevated the fraction of stem cells that contributed to the repaired epidermis and diminished the number remaining in the bulge.

[7] = test system: cultured HFSCs; test: Rspo/WNT-mediated HFSC activation in culture (TCF/LEF, Lgr5, EdU); format: cell-based, mouse
Excerpt: In vitro, none of the four WNT-regulating TCF/LEF transcription factors were expressed under standard serum conditions or in serum-free conditions, even with PKCi. […] These HFSC-associated TFs were also stimulated by BMP6, consistent with a raised threshold for activating WNT during quiescence (FIG. 10, Panels A and B). […] Rspo-mediated HFSC proliferation was sensitive to atRA with the greatest cooperative effect seen at 10-fold higher the atRA concentration that had been optimal for quiescence-related features of stemness (FIG. 2 Panel E, FIG. 10 Panel D).
as §1

[8] = test system: Klf5-EGFP; test: Klf5-EGFP lineage plasticity reporter in 3D cultured HFSCs (flow cytometry); format: cell-based, mouse
[9] = test system: CD34^+ HFSCs; test: Topical treatment of mouse back skin during resting phase of the hair cycle; format: in vivo, mice; conditions: telogen
[10] = daily topical during HF downgrowth

## CC1=C(/C=C/C(C)=C/C=C/C(C)=C/C(=O)O)C(C)(C)CCC1 [atRA, all-trans-retinoic acid]
[1]
  hair production upon engraftment: efficiently produced hair
[2]
  Nfib and Tbx1 expression: restored Nfib and Tbx1 expression
  epidermal markers Sca1 and KRT10: suppressed epidermal markers
[2]; atRA titrated 10 nM-1 μM
  Sox9 mRNA levels: increased Sox9 mRNA levels in a dose-dependent manner
[2]; combination of atRA and PKCi, 3D culture
  resolution of lineage plasticity and HFSC behavior: optimally resolved lineage plasticity and favored HFSC behavior
[2]; serum-free conditions
  KLF5 expression: not as effective in reducing KLF5
  SOX9 population: markedly expanded the SOX9 population
[3]
  bulge HFSC identity (Nfatc1, Cxcl14-EGFP reporter): dose-dependent boost in bulge HFSC identity, optimal at low concentration
[3]; listed as RA
  bulge HFSC identity (Nfatc1, Cxcl14-EGFP reporter): increased
[3]; with BMP6
  atRA concentration at which BMP6-mediated Nfatc1 mRNA upregulation was maximal: 10 nM
[4]; [10]
  TAC differentiation: prevented TAC differentiation
  hair regrowth: prevented hair regrowth
[4]; topical, mid-anagen
  proportion of HOXC13^+ to GATA3^+ cells: reduced the relative proportion of HOXC13^+ to GATA3^+ cells
  size of the hair bulb: substantially reduced the size of the hair bulb overall
[5]
  KLF5 expression: further suppressed KLF5 expression in both basal and suprabasal layers
  SOX9 levels: upregulated SOX9 levels
  keratin profile (KRT10, KRT6, KRT15): reductions in KRT10 and KRT6; also recorded: upregulation of KRT15
[6]; topical after wounding
  HFSC lineage plasticity state during wound repair: Fewer HFSCs entered the lineage plasticity state
  restoration of skin barrier (transepidermal water loss, TEWL): clear delay in restoring the skin's barrier
[6]; topical after wounding, listed as RA
  HFSC lineage plasticity state during wound repair: accelerated lineage plasticity resolution
[6]; topical to wound bed, vitamin A-deficient diet
  hair regeneration and HFSC fate in vitamin A-deficient mice: all of these features were rescued
[7]
  Tcf7l1 (TCF3) and Tcf7l2 (TCF4) expression: promoted expression
[7]; compared among physiological vitamin A derivatives
  Sox9 and Rspo-mediated Lgr5 upregulation: greatest effect on Sox9 and Rspo-mediated Lgr5 upregulation
[7]; with Rspo
  atRA concentration at which Lgr5 mRNA upregulation and EdU incorporation were optimized: 100 nM
  atRA concentration for greatest cooperative effect on Rspo-mediated HFSC proliferation relative to concentration optimal for quiescence: 10 fold
[8]; atRA and PKCi tested in combination
  reduction of Klf5-EGFP levels: most effective at reducing Klf5-EGFP levels
[8]; screen of small molecule library, serum-free 3D culture
  effect on lineage plasticity (Klf5-EGFP levels): effective at reducing lineage plasticity without affecting proliferation; also recorded: particularly effective agents impacting lineage plasticity
[9]
  hair cycle (anagen) entry: facilitated hair cycle entry
[9]; listed as RA
  hair cycle (anagen) entry: accelerated the onset of anagen entry

Reference: patent publication US20250110116A1, “COMPOSITIONS AND METHODS FOR PRODUCING HAIR FOLLICLE STEM CELLS” (The Rockefeller University, priority 2023, published 2025)
